Experimental data as given in publication PMC9428674 (RSC Chemical Biology, 2022).

What was measured:
NTAQ1 = assay: Western blot verification of NTAQ1 degradation; settings: 100 nM MLN4924 pre-treatment for 2 hours
[1] = cited from earlier work

SMILES: NS(=O)(=O)OC[C@@H]1C[C@@H](n2ccc3c(N[C@H]4CCc5ccccc54)ncnc32)C[C@@H]1O [MLN4924]
- effect of pre-treatment on NTAQ1 downregulation by EM12-FS (NTAQ1): rescued downregulation of NTAQ1 by EM12-FS

SMILES: Nc1cccc2c1CN(C1CCC(=O)NC1=O)C2=O (stereo not shown) [lenalidomide]
- human plasma half-life [1]: 4.73 h

SMILES: Nc1cccc2c1C(=O)N(C1CCC(=O)NC1=O)C2=O (stereo not shown) [pomalidomide]
- human plasma half-life [1]: 2.65 h

SMILES: O=C1CCC(N2C(=O)c3ccccc3C2=O)C(=O)N1 (stereo not shown) [thalidomide]
- human plasma half-life [1]: 0.367 h
